ChEMBL document CHEMBL2401638, “Design and synthesis of biquinolone-isoniazid hybrids as a new class of antitubercular and antimicrobial agents” (Eur J Med Chem, 2013)
≈ marks a conversion by molar mass, not a printed value.

Key:
[1] = tested on: Mycobacterium tuberculosis; experiment: Antituberculosis activity against Mycobacterium tuberculosis H37Rv assessed as growth inhibition at 250 ug/ml after 12 to 28 days by Lowenstein-Jensen method relative to control; type: functional; conditions: read-out: GI
Salmonella typhi = experiment: Antibacterial activity against Salmonella typhi MTCC 98 assessed as growth inhibition by broth microdilution method; type: functional, Salmonella enterica subsp. enterica serovar Typhi; conditions: Salmonella enterica
[2] = tested on: Mycobacterium tuberculosis; experiment: Antituberculosis activity against Mycobacterium tuberculosis H37Rv assessed as growth inhibition after 12 to 28 days by Lowenstein-Jensen method; type: functional
[3] = Cytotoxicity in Artemia cysts assessed as mortality of nauplii at 5 ug/mL after 24 hrs relative to control; type: organism-based; conditions: in vivo
[4] = Cytotoxicity in Artemia cysts assessed as mortality of nauplii at 20 ug/mL after 24 hrs relative to control; type: organism-based; conditions: in vivo
Staphylococcus aureus = experiment: Antibacterial activity against Staphylococcus aureus MTCC 96 assessed as growth inhibition by broth microdilution method; type: functional
[5] = Cytotoxicity in Artemia cysts assessed as mortality of nauplii at 10 ug/mL after 24 hrs relative to control; type: organism-based; conditions: in vivo
Escherichia coli = experiment: Antibacterial activity against Escherichia coli MTCC 443 assessed as growth inhibition by broth microdilution method; type: functional
Candida albicans = experiment: Antifungal activity against Candida albicans MTCC 227 assessed as growth inhibition by broth microdilution method; type: functional
Bacillus subtilis = experiment: Antibacterial activity against Bacillus subtilis MTCC 441 assessed as growth inhibition by broth microdilution method; type: functional
[6] = Cytotoxicity in Artemia cysts assessed as mortality of nauplii at 30 ug/mL after 24 hrs relative to control; type: organism-based; conditions: in vivo
[7] = Cytotoxicity in Artemia cysts assessed as mortality of nauplii at 40 ug/mL after 24 hrs relative to control; type: organism-based; conditions: in vivo
[8] = Cytotoxicity in Artemia cysts assessed as mortality of nauplii after 24 hrs; type: organism-based; conditions: in vivo
Trichophyton rubrum = experiment: Antifungal activity against Trichophyton rubrum MTCC 296 assessed as growth inhibition by broth microdilution method; type: functional
Clostridium tetani = experiment: Antibacterial activity against Clostridium tetani MTCC 449 assessed as growth inhibition by broth microdilution method; type: functional
[9] = Cytotoxicity in Artemia cysts assessed as mortality of nauplii at 50 ug/mL after 24 hrs relative to control; type: organism-based; conditions: in vivo
Pseudomonas aeruginosa = experiment: Antibacterial activity against Pseudomonas aeruginosa MTCC 1688 assessed as growth inhibition by broth microdilution method; type: functional

Row | SMILES | inhibition of growth at 250 µg/mL [1] | MIC (Salmonella typhi) | MIC [2] | mortality at 24 h, 5 ug/mL [3] | mortality at 24 h, 20 ug/mL [4] | MIC (Staphylococcus aureus) | mortality at 24 h, 10 ug/mL [5] | MIC (Escherichia coli) | MIC (Candida albicans) | MIC (Bacillus subtilis) | mortality at 24 h, 30 ug/mL [6] | mortality at 24 h, 40 ug/mL [7] | LC50 at 24 h [8] | MIC (Trichophyton rubrum) | MIC (Clostridium tetani) | mortality at 24 h, 50 ug/mL [9] | MIC (Pseudomonas aeruginosa)
1 | C=CCn1c(=O)c(C2C(C(=O)OC(C)C)=C(N)N(NC(=O)c3ccncc3)C3=C2C(=O)CC(C)(C)C3)cc2cc(Cl)ccc21 (stereo not given) | 94% | 125 µg/mL | 62.5 µg/mL (≈ 101 µM) | 0% | 30% | 125 µg/mL | 10% | 200 µg/mL | 1000 µg/mL | 500 µg/mL | 50% | 70% | 24.5 µg/mL (≈ 39.7 µM) | 500 µg/mL | 125 µg/mL | 90% | 500 µg/mL
2 | C=CCn1c(=O)c(C2C(C(=O)OCC)=C(N)N(NC(=O)c3ccncc3)C3=C2C(=O)CC(C)(C)C3)cc2cc(OC)ccc21 (stereo not given) | 96% | 125 µg/mL | 100 µg/mL (≈ 167 µM) | 10% | 30% | 200 µg/mL | 20% | 250 µg/mL | 500 µg/mL | 125 µg/mL | 50% | 60% | 26.6 µg/mL (≈ 44.5 µM) | 1000 µg/mL | 250 µg/mL | 80% | 125 µg/mL
3 | C=CCn1c(=O)c(C2C(C(=O)OC)=C(N)N(NC(=O)c3ccncc3)C3=C2C(=O)CC(C)(C)C3)cc2cc(C)ccc21 (stereo not given) | 99% | 100 µg/mL | 25 µg/mL (≈ 44 µM) | 0% | 20% | 500 µg/mL | 10% | 125 µg/mL | 500 µg/mL | 200 µg/mL | 40% | 60% | 34.6 µg/mL (≈ 60.9 µM) | > 1000 µg/mL | 500 µg/mL | 70% | 250 µg/mL
4 | C=CCn1c(=O)c(C2C(C(=O)OC(C)C)=C(N)N(NC(=O)c3ccncc3)C3=C2C(=O)CC(C)(C)C3)cc2cc(C)ccc21 (stereo not given) | 99% | 200 µg/mL | 12.5 µg/mL (≈ 21 µM) | 0% | 30% | 500 µg/mL | 10% | 125 µg/mL | 500 µg/mL | 500 µg/mL | 40% | 50% | 35.4 µg/mL (≈ 59.4 µM) | 1000 µg/mL | 500 µg/mL | 70% | 200 µg/mL
5 | C=CCn1c(=O)c(C2C(C(=O)OC)=C(N)N(NC(=O)c3ccncc3)C3=C2C(=O)CCC3)cc2cc(OC)ccc21 (stereo not given) | 98% | 125 µg/mL | 50 µg/mL (≈ 90 µM) | 10% | 40% | 200 µg/mL | 20% | 100 µg/mL | 1000 µg/mL | 50 µg/mL | 60% | 80% | 19.7 µg/mL (≈ 35.4 µM) | > 1000 µg/mL | 125 µg/mL | 90% | 125 µg/mL
